One data set addresses T1, IDH2-R140Q (Homo sapiens, UniProt P48735, R140Q).
T1 construct: expressed in transfected cells
T1 sequence (P48735 40-452 R140Q): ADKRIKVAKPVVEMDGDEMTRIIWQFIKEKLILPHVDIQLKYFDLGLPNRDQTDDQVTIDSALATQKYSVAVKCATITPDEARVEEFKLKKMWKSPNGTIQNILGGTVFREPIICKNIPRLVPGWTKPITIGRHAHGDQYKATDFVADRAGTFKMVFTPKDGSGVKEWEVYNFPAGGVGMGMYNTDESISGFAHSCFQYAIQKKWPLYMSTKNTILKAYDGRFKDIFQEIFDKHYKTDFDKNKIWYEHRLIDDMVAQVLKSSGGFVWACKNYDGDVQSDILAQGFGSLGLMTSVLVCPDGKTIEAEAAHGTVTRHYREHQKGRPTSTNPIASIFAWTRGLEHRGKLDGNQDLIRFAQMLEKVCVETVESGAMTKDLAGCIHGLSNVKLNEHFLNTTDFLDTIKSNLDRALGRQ
The data set can be described thus: Fluorescent determination of IDH2-R140Q cell activity (2-HG in U87MGR140Q cells). The conditions noted are these: 72 hours incubation, read-out: IC50 (2-HG inhibition). The class given is cell-based.

Another data set addresses T2, IDH1-R132H (Homo sapiens, UniProt O75874, R132H).
T2 construct: expressed in transfected cells; host or cells: U87MG cells (U87MGR132H)
The data set can be described thus: Fluorescent determination of IDH1-R132H cell activity (2-HG in U87MGR132H cells). The class given is cell-based. The conditions noted are these: 2-HG inhibition in U87MGR132H cells transfected with IDH1-R132H mutant plasmid.

A short description of data set [1]: Metabolic stability test in liver microsomes (mouse). The class given is in vitro ADME. The conditions noted are these: percentage of remaining compound after incubation for 30 minutes vs 0 minute; 1 μM compound; 0.5 mg/mL liver microsomes; 37° C. As for the experimental part: (§1) Male CD1 mouse liver microsomes was supplied by Research Institute for Liver Diseases (Shanghai) Co., Ltd. Male SD rat liver microsomes was supplied by BioreclamationIVT in US.
(§2) Phenacetin, glucose-6-phosphate (G-6-P), glucose-6-phosphate dehydrogenase (G-6-PD), and nicotinamide adenine dinucleotide phosphate (NADP) were supplied by Sigma-Aldrich (Missouri, USA).
(§3) 10 mM stock solution of test compound: Certain amount of test compound was weighed and dissolved in certain volume of dimethylsulfoxide (DMSO) to get the stock solution of test compound at 10 mM.
(§4) Reaction termination solution: Certain amount of phenacetin as internal standard was weighed and dissolved in acetonitrile to get the reaction termination solution at 1000 ng/mL, and stored at room temperature for use.
(§5) The stock solution of test compound was diluted to the designated concentration with organic solution (usually the mixtures of acetonitrile, methanol and water with different portions depending on the compound solution) to make the final concentration to be 1 μM and the contents of organic solvents no more than 1% (For DMSO, the controlled margin was 0.1%) in the final incubation system. 100 mM NADP, 500 mM G-6-P and 100 U/mL G-6-PDH were mixed and diluted with ultrapure water to provide the NADPH regenerating system containing 1 mM NADP, 5 mM G-6-P and 1 U/mL G-6-PD, which was pre-incubated at 37° C. water-bath for 10 min and then cooled on ice until being added into the reaction system. 20 mg/mL liver microsomes was mixed with 200 mM PBS and diluted with ultrapure water to make the concentrations of liver microsomes and PBS to be 0.5 mg/mL and 50 mM in the final incubation system, respectively. After the diluted liver microsomes was mixed with the NADPH regenerating solution, certain volumes of 100 mM EDTA and 300 mM MgCl2 (concentration of EDTA and MgCl2 in the final incubation system is 1 mM and 3 mM, respectively) were added, and the incubation system was put into 37° C. water bath. The incubation was commenced by adding the stock solution of test compound and maintained for 30 min. The incubation was terminated by adding the reaction termination solution. The 0 min sample was prepared by adding the reaction termination solution to the incubation system immediately prior to putting the system into the water bath with the addition of the stock solution of test compound. The terminated incubation mixtures were vortexed and centrifuged at 4400 rpm for 10 min, and the supernatant was collected for LC-MS/MS analysis.
(§6) The concentration of test compound was determined using LC-MS/MS method. Using the peak area ratio of the compound and the internal standard as an index, the percentage of remaining compound after incubation for 30 minutes as compared with the 0 minute sample was calculated, and the metabolic stability of the compound was evaluated.

The nature of data set [2]: Metabolic stability test in liver microsomes (rat). The class given is in vitro ADME. The conditions noted are these: percentage of remaining compound after incubation for 30 minutes vs 0 minute; 1 μM compound; 0.5 mg/mL liver microsomes; 37° C. As for the experimental part: as §1, §2, §3, §4, §5, §6

SMILES strings stand for the structures.

T2 sequence (O75874 whole entry R132H): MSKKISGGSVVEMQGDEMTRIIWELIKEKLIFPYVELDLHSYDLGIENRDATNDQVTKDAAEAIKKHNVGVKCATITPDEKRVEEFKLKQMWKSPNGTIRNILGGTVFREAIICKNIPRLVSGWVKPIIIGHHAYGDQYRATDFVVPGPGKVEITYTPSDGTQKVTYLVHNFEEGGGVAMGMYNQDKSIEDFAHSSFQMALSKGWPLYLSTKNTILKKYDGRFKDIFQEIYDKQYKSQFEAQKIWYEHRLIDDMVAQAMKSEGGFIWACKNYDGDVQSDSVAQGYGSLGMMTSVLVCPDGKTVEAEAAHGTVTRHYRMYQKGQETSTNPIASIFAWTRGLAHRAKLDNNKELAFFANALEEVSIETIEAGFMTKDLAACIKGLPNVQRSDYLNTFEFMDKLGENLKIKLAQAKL

Turning to `C[C@@H](Nc1nc(NC2CCC(F)(F)C2)nc(C2=CC(O)CCC2)n1)C(F)(F)F` (mixture of isomers) [Compound 177], the half-maximal inhibitory concentration (IC50) at IDH2-R140Q worked out at 46 nM; at IDH1-R132H it was 94 nM. In addition, the “Mouse liver microsome stability” value in data set [1] is recorded as 31.0%. The “Rat liver microsome stability” value in data set [2] was 45.9%.

As for `CC(C)Nc1nc(N[C@H](C)C(F)(F)F)nc(C2=C(F)C(O)C(F)CC2)n1` (single isomer, unassigned) [Compound 95], the IC50 at IDH2-R140Q turned out to be 43 nM; against IDH1-R132H, 317 nM. Moreover, the “Mouse liver microsome stability” value in data set [1] came out at 80.1%. Further, the “Rat liver microsome stability” value in data set [2] amounted to 74.8%.

In the case of `C[C@@H](Nc1nc(N[C@H](C)C(F)(F)F)nc(C2=C(F)C(O)C(F)CC2)n1)C(F)(F)F` (single isomer, unassigned) [Compound 98], the concentration for half-maximal inhibition (IC50) is 344 nM on IDH2-R140Q and 254 nM at IDH1-R132H. The “Mouse liver microsome stability” value in data set [1] came out at 83.7%. In addition, in data set [2], the “Rat liver microsome stability” value was 99.2%.

As to `C[C@@H](Nc1nc(N[C@H](C)C(F)(F)F)nc(C2=C(F)C(O)C(F)(F)CC2)n1)C(F)(F)F` (single isomer, unassigned) [Compound 197], the values for the concentration for half-maximal inhibition (IC50) at IDH2-R140Q and at IDH1-R132H were 41 nM and 120 nM, respectively. For the same molecule, the “Mouse liver microsome stability” value in data set [1] is listed as 98.4%. Besides, the “Rat liver microsome stability” value in data set [2] amounted to 99.5%.

In the case of `OC1C(F)=C(c2nc(NC3CC(F)(F)C3)nc(NC3CC(F)(F)C3)n2)CCC1F` (single isomer, unassigned) [Compound 201], the IC50 amounted to 45 nM on IDH2-R140Q and 109 nM at IDH1-R132H. Besides, the “Mouse liver microsome stability” value in data set [1] stood at 79.3%. The “Rat liver microsome stability” value in data set [2] was found to be 91.6%.

Take `OC1C(F)=C(c2nc(NC3CC(F)(F)C3)nc(NC3CC(F)(F)C3)n2)CCC1F` (single isomer, unassigned) [Compound 202]: the values for the IC50 at IDH2-R140Q and against IDH1-R132H were 383 nM and 1100 nM, respectively. Further, the “Mouse liver microsome stability” value in data set [1] is on record as 96.4%. Besides, in data set [2], the “Rat liver microsome stability” value came out at 94.2%.

For the molecule `C[C@@H](Nc1nc(NC2CC(F)(F)C2)nc(C2=C(F)C(O)C(F)CC2)n1)C(F)(F)F` (single isomer, unassigned) [Compound 227], the results for the IC50 on IDH2-R140Q and on IDH1-R132H were 48 nM and 81 nM, respectively. For the same molecule, the “Mouse liver microsome stability” value in data set [1] came to 81.4%. The “Rat liver microsome stability” value in data set [2] came to 88.8%.

Consider `C[C@@H](Nc1nc(N[C@@H]2CCC(F)(F)C2)nc(C2=C(F)C(O)C(F)CC2)n1)C(F)(F)F` (single isomer, unassigned) [Compound 232], for which the IC50 at IDH2-R140Q worked out at 40 nM; against IDH1-R132H, 70 nM. Also, in data set [1], the “Mouse liver microsome stability” value is on record as 76.3%. Besides, in data set [2], the “Rat liver microsome stability” value was determined as 86.6%.

As to `OC1CCCC(c2nc(NC3CC(F)(F)C3)nc(NC3CC(F)(F)C3)n2)=C1F` (stereo not drawn) [Compound 5], the IC50 stood at 93 nM on IDH2-R140Q and 869 nM against IDH1-R132H. The “Mouse liver microsome stability” value in data set [1] is given as 58.6%. In addition, the “Rat liver microsome stability” value in data set [2] is recorded as 76.8%.

As to `[2H]C1(O)CCCC(c2nc(NC3CC(F)(F)C3)nc(NC3CC(F)(F)C3)n2)=C1F` (stereo not drawn) [Compound 19], the IC50 at IDH2-R140Q is 83 nM; on IDH1-R132H, 421 nM. In addition, the “Mouse liver microsome stability” value in data set [1] is on record as 66.2%. For the same molecule, in data set [2], the “Rat liver microsome stability” value was determined as 83.8%.

As to `[2H]C1([2H])CCC(c2nc(NC3CC(F)(F)C3)nc(N[C@@H](C)C(F)(F)F)n2)=C(F)C1O` (stereo partly drawn) [Compound 84], the 50% inhibitory concentration (IC50) stood at 48 nM at IDH2-R140Q and 268 nM against IDH1-R132H. Moreover, the “Mouse liver microsome stability” value in data set [1] turned out to be 78.9%. Further, in data set [2], the “Rat liver microsome stability” value turned out to be 67.8%.

For the molecule `[2H]C1([2H])CCC(c2nc(NC3CC(F)(F)C3)nc(NC3CC(F)(F)C3)n2)=C(F)C1O` (stereo not drawn) [Compound 85], the figures for the half-maximal inhibitory concentration (IC50) at IDH2-R140Q and at IDH1-R132H were 35 nM and 207 nM, respectively. Moreover, the “Mouse liver microsome stability” value in data set [1] stood at 64.0%. Also, the “Rat liver microsome stability” value in data set [2] was determined as 78.1%.

Source of the values: patent publication US12234211B2, “Cycloolefin substituted heteroaromatic compounds and their use” (HUTCHISON MEDIPHARMA LIMITED, priority 2017, dated 2025).
